Data published in publication PMC2896556 (Biochemistry, 2010).
Where two headings read alike, the source gives them in different places.

Experiments:
RT subunit interactions = settings: cited from earlier work
RT dimerization [1] = settings: urea denaturation; cited from earlier work
RT dimerization [2] = settings: yeast-two hybrid; cited from earlier work
p66 = p66 (Human immunodeficiency virus type 1 group M subtype B, UniProt P04585); design: species or system HIV-1; settings: 3 μM p66, 25 μM NNRTI, 1 wk
p51/p51 = settings: cited from earlier work
p66/p66 = settings: cited from earlier work

## CC(C)(C)c1ccc(C(=O)NN=Cc2ccccc2O)cc1 [BBSH, (4-tert-butylbenzoyl)-2-hydroxy-1-salicylyl hydrazone]
RT subunit interactions
  effect on RT subunit interactions: weaken subunit interactions

## Cc1ccnc2c1NC(=O)c1cccnc1N2C1CC1 [nevirapine]
RT subunit interactions
  effect on RT subunit interactions: enhance subunit interactions
RT dimerization [1]
  effect on RT dimerization: no effect
RT dimerization [2]
  effect on RT dimerization: small enhancement of dimerization
p66
  effect on p66 dimerization: enhance dimerization

## CCn1c(=O)c(C)cn([C@@H]2O[C@H](CO[Si](C)(C)C(C)(C)C)C3(OS(=O)(=O)C=C3N)[C@H]2O[Si](C)(C)C(C)(C)C)c1=O (stereo partly drawn) [TSAOe^3T, 1-(spiro{4”-amino-2”,2”-dioxo-1”,2”-oxathiole-5”,3′-[2′,5′-bis-O-(tert-butyldimethylsilyl)-β-D-ribofuranosyl]})-3-ethylthymine]
RT subunit interactions
  effect on RT subunit interactions: weaken subunit interactions

## CC(C)Nc1cccnc1N1CCN(C(=O)c2cc3cc(NS(C)(=O)=O)ccc3[nH]2)CC1 [delavirdine]
RT subunit interactions
  effect on RT subunit interactions: little or no effect

## O=C1Nc2ccc(Cl)cc2[C@@](C#CC2CC2)(C(F)(F)F)O1 [efavirenz]
p51/p51
  enhancement of dimer formation: 600 fold
RT subunit interactions
  effect on RT subunit interactions: enhance subunit interactions
p66/p66
  enhancement of dimer formation: 50 fold

## CC(C)(C)c1ccc(C(=O)NN=Cc2c(O)ccc3ccccc23)cc1 [BBNH, N-(4-tert-butylbenzoyl)-2-hydroxy-1-naphthaldehyde hydrazone]
RT subunit interactions
  effect on RT subunit interactions: weaken subunit interactions
